Assay results from patent US7781428B2 (Pfizer Inc., priority 2006, dated 2010).
Counter-ions that a name gives are not always drawn.

Target: T1, mineralocorticoid receptor (MR) (Homo sapiens, UniProt P08235)
T1 construct: expressed in transfected cells; host or cells: Huh7 (human liver cells)
T1 sequence (P08235 726-964 limits assumed): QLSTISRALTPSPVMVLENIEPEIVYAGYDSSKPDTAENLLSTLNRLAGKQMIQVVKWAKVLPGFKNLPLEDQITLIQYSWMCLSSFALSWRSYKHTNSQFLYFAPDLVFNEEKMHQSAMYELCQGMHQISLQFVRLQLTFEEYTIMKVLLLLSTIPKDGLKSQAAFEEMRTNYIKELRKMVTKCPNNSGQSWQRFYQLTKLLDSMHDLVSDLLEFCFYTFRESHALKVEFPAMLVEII
Assay: Cell-based Gal4 response element-controlled luciferase reporter assay (MR antagonism)
Details: Huh7 human liver cells transfected with Gal4 DBD-MR LBD fusion and luciferase reporter; block of agonist-induced activation; overnight incubation
Text: Method 1: Cell-based Gal4 Response Element-controlled Luciferase Reporter Assay
An in vitro assay can be used to evaluate mineralocorticoid receptor (MR) antagonism by a test compound. […] An agonist of the receptor can bind to and activate the receptor LBD, which activate the expression of the Gal4 response element containing luciferase reporter gene. Antagonists can compete for binding to the receptor LBDs and decrease the transcription activity of the reporter gene. Measurement of luciferase activity allows quantitative determinations of the reporter transcription in the presence of either agonists or agonists and antagonists in combination. β-galactosidase activity, which is unaffected by ligand, is used to normalize the transfection efficiency in the cell population.
Huh7 cells were plated in RPMI1640+10% fetal bovine serum (Invitrogen Corporation, San Diego, Calif.), at 10,000 cells per well in 96-well tissue culture dishes for approximately 24 hours. Cells were then transfected using FuGENE™ 6 Transfection Reagent according to manufacturers' instructions (Roche Molecular Biochemicals, Indianapolis, Ind.). Approximately 20 hours after transfection, media were removed. Cells were washed once with PBS and treated (n=6/group) with agonist for each receptor (all chemicals from Sigma, St. Louis, Mo.), and with compounds. Agonist concentrations represent 70-80% of full activation of each receptor.
Compounds were dissolved in DMSO at 10 mM and diluted to final concentrations in phenol red-free media that contained 10% charcoal- and dextran-stripped serum (Life Technologies, Gathersburg, Md.). Following overnight incubation (18-20 hours) with compounds, the medium was removed and replaced with 100 μL per well of PBS and 100 μL of Steady-Glo™ lysis buffer with luciferase substrate (Promega Corporation, Madison, Wis.). After a 30-minute incubation to completely lyse the cells, 100 μL of the lysate was transferred to a black, Dynatech Microfluor assay plates (Dynex Corporation, Chantilly, Va.) to measure luciferase activity. The plate was sealed with TopSeal self-adhesive film, dark-adapted for 5 minutes, then counted in a TopCount Plate Reader (Packard Instrument Company, Meriden, Conn.) in single photon counting mode. The remaining lysate was used for determination of β-galactosidase activity. In a clear 96-well assay plate, 100 μL of cell lysate was added to 100 μL β-galactosidase assay buffer per well. The assay buffer consisted of 60 mM Na2HPO4, 40 mM NaH2PO4, 10 mM KCl, 1 mM MgSO4, 50 mM β-mercaptoethanol, and 2.5 mg/mL ONPG, the latter two reagents were added just prior to assay (all chemicals from Sigma). The reaction was allowed to proceed until a distinct yellow color developed. Reactions were stopped by the addition of 100 μL per well 1 M Na2CO3 and plates were read at 420 nm in Victor-2 (Perkin Elmer Life Sciences, Boston, Mass.). Values (relative luciferase activity) for each sample were expressed as a ratio of luciferase activity to OD420β-galactosidase activity measured in arbitrary units for each well. […] “b” is the slope, “c” is the IC50 or EC50. “x” is the concentration of the compound and “y” the activity at that concentration.

First: N#Cc1ccc(N2N=C3c4ccc(C(=O)O)cc4CCC3C2c2ccc(F)cc2)cn1 (racemic) [Example 14, 2-(6-cyanopyridin-3-yl)-3-(4-fluorophenyl)-3,3a,4,5-tetrahydro-2H-benzo[g]indazole-7-carboxylic acid trifluoroacetate]
Second: Cc1cc(N2N=C3c4ccc(C(=O)O)cc4CC[C@@H]3[C@@H]2c2ccc(F)cc2)ccc1C#N [Example 7, (3R,3aR)-2-(4-cyano-3-methylphenyl)-3-(4-fluorophenyl)-3,3a,4,5-tetrahydro-2H-benzo[g]indazole-7-carboxylic acid]
The IC50 of the first is 54-fold higher: 929 nM for the first, 17.2 nM for the second.

Compared with `N#Cc1ccc(N2N=C3c4ccc(C(=O)NCCCCCC(=O)O)cc4CC[C@@H]3[C@@H]2c2ccc(F)cc2)cc1Cl` (racemic) [Example 103, (±)-6-((3RS,3aRS)-2-(3-chloro-4-cyanophenyl)-3-(4-fluorophenyl)-3,3a,4,5-tetrahydro-2H-benzo[g]indazole-7-carboxamido)hexanoic acid], `N#Cc1ccc(N2N=C3c4ccc(C(=O)NCCOCC(=O)O)cc4CC[C@@H]3[C@@H]2c2ccc(F)cc2)cc1Cl` (racemic) [Example 109, (±)-2-(2-((3RS,3aRS)-2-(3-chloro-4-cyanophenyl)-3-(4-fluorophenyl)-3,3a,4,5-tetrahydro-2H-benzo[g]indazole-7-carboxamido)ethoxy)acetic acid] is higher in IC50: 113 nM for the first, greater than 1000 nM for the second. The first is the more potent here.

Going from `N#Cc1ccc(N2N=C3c4ccc(C(=O)O)cc4CCC3C2c2ccoc2)cc1Cl` (racemic) [Example 46, 2-(3-chloro-4-cyanophenyl)-3-(3-furyl)-3,3a,4,5-tetrahydro-2H-benzo[g]indazole-7-carboxylic acid] to `N#Cc1ccc(N2N=C3c4ccc(C(=O)O)cc4CCC3C2c2ccno2)cc1` (racemic) [Example 52, 2-(4-cyanophenyl)-3-isoxazol-5-yl-3,3a,4,5-tetrahydro-2H-benzo[g]indazole-7-carboxylic acid], the IC50 rises from 69 nM to 4980 nM (72-fold). The first is the more potent here.

Going from `N#Cc1ccc(N2N=C3c4ccc(C(=O)O)cc4OCC3C2C2CC2)cc1Cl` (racemic) [Example 76, 2-(3-chloro-4-cyanophenyl)-3-cyclopropyl-2,3,3a,4-tetrahydrochromeno[4,3-c]pyrazole-7-carboxylic acid] to `N#Cc1ccc(N2N=C3c4ccc(C(=O)O)cc4OCC3C2C2CCCC2)cc1C(F)(F)F` (racemic) [Example 68, (±)-(3RS,3aSR)-2-[4-cyano-3-(trifluoromethyl)phenyl]-3-cyclopentyl-2,3,3a,4-tetrahydrochromeno[4,3-c]pyrazole-7-carboxylic acid], the IC50 falls from greater than 1000 nM to 52 nM.

First: N#Cc1ccc(N2N=C3c4ccc(O)cc4CC[C@H]3[C@H]2c2ccc(F)cc2)cc1C(F)(F)F [Example 85, 4-((3S,3aS)-3-(4-fluorophenyl)-7-hydroxy-3,3a,4,5-tetrahydrobenzo[g]indazol-2-yl)-2-(trifluoromethyl)benzonitrile]
Second: N#Cc1ccc(N2N=C3c4ccc(O)cc4CCC3C2c2ccc(F)cc2)cc1C(F)(F)F (racemic) [Example 83]
The IC50 of the first is higher: greater than 1000 nM for the first, 77 nM for the second. The second is the more potent here.

First: CS(=O)(=O)CCNC(=O)c1ccc2c(c1)CC[C@H]1C2=NN(c2ccc(C#N)c(Cl)c2)[C@H]1c1ccc(F)cc1 [Example 95, (3R,3aR)-2-(3-chloro-4-cyanophenyl)-3-(4-fluorophenyl)-N-(2-(methylsulfonyl)ethyl)-3,3a,4,5-tetrahydro-2H-benzo[g]indazole-7-carboxamide]
Second: N#Cc1ccc(N2N=C3c4ccc(C(=O)O)cc4CCC3C2C2CCCC2)cc1OCc1ccccc1 (racemic) [Example 31, 2-(3-(benzyloxy)-4-cyanophenyl)-3-cyclopentyl-3,3a,4,5-tetrahydro-2H-benzo[g]indazole-7-carboxylic acid]
The IC50 of the first is 240-fold lower: 2 nM for the first, 488 nM for the second. The first is the more potent here.

`N#Cc1ccc(N2N=C3c4ccc(C(=O)O)cc4OCC3C2C2CCCC2)cc1C(F)(F)F` (racemic) [Example 69, (±)-(3RS,3aRS)-2-[4-cyano-3-(trifluoromethyl)phenyl]-3-cyclopentyl-2,3,3a,4-tetrahydrochromeno[4,3-c]pyrazole-7-carboxylic acid] was tested, and the IC50 was 130 nM.
